Experimental data published in US20080280991A1, “SUBSTITUTED NAPHTHALENES” (AUSPEX PHARMACEUTICALS, INC., priority 2007, published 2008).
One block for each compound: values may come before it.

Legend:
[1] = In vitro liver microsomal stability assay; format: in vitro ADME; conditions: 1 mg per mL liver microsome protein, NADPH-generating system, 5 microgram per mL compound, 37° C., 0-60 min, LC/MS/MS
Description: Liver microsomal stability assays are conducted at 1 mg per mL liver microsome protein with an NADPH-generating system in 2% NaHCO3 (2.2 mM NADPH, 25.6 mM glucose 6-phosphate, 6 units per mL glucose 6-phosphate dehydrogenase and 3.3 mM MgCl2). Test compounds are prepared as solutions in 20% acetonitrile-water and added to the assay mixture (final assay concentration 5 microgram per mL) and incubated at 37° C. Final concentration of acetonitrile in the assay should be <1%. Aliquots ([…]) are taken out at times 0, 15, 30, 45, and 60 min, and diluted with ice cold acetonitrile (200 μL) to stop the reactions. Samples are centrifuged at 12,000 RPM for 10 min to precipitate proteins. Supernatants are transferred to microcentrifuge tubes and stored for LC/MS/MS analysis of the degradation half-life of the test compounds. […] For example, the degradation half-life of Example 9 was increased by 20% as compared to non-isotopically enriched agomelatine.

melatonin receptor = conditions: relative to agomelatine; cited from earlier work
[2] = in vivo; cited from earlier work

increase in the degradation half-life as compared to the non-isotopically enriched drug (agomelatine) [1]: 20%
SMILES: [2H]C([2H])([2H])Oc1ccc2cccc(C([2H])([2H])C([2H])([2H])NC(=O)C([2H])([2H])[2H])c2c1 [Example 9, d10-N-[2-(7-Methoxy-naphthalen-1-yl)-ethyl]-acetamide]

SMILES: CC(=O)NCCc1cccc2ccc(O)cc12 [S 21517]
fold less potency for the melatonin receptor than the parent compound (agomelatine) (melatonin receptor): 100 fold

SMILES: COc1ccc2cccc(CCNC(C)=O)c2c1 [agomelatine, N-[2-(7-Methoxy-naphthalen-1-yl)-ethyl]-acetamide]
terminal elimination half-life [2]: 2.3 h
